Experimental data published in patent publication US5908868A, “Retinol derivatives useful for enhancing immune response” (priority 1995, dated 1999).
“Also recorded” adds a separate entry of the source.

Experiments:
[1] = system: 5/2 cells; format: in vitro ADME, human
Procedure: 5/2 cells (10^6 cells in 10 ml HB 101 medium) were incubated with all-trans-[^3 H] retinol (10 uCe/ml). After 24 hours, retinoids were extracted from the washed cell pellet and unlabeled marker retinoids were added. The crude extract was loaded on an analytical reversed-phase C-18 column. Retinoids were eluted with the shown linear gradient of water/methanol/chloroform. The flow rate was 0.5 ml/min. DPM were determined with an on line scintillation counter. Reference retinoids were the all-trans forms of 0: 3,4-didehydroretinoic acid, 1: all-trans-retinoic acid, 2: 3,4-didehydroretinol, 3: retinol, 4: retinyl linoleate, 5: retinyl oleate, 6: retinyl palmitate. Shaded area corresponds to P3. Cross-hatched area corresponds to P1.
Lymphoblastoid 5/2 cells grown in the presence of 10^-6 M retinol were spiked with ^3 H-labeled retinol. After 16 hours the cell pellet was delipidated according to the method of McLean et al. and separated on a reversed phase C-18 HPLC column (FIG. 7). […] Three peaks, P1, P2 and P3, could not be immediately identified. One peak eluting at 36-39 minutes (corresponding 83% methanol 7% water) provisionally called P3, but now known as 14HRR, was unusual because unlike P1 eluting at 31-34 minutes, its relative amount increased when the retinol concentration was lowered or when retinol was given to the cells bound to RBP. […]

[2] = system: 26 mammalian cells; assay: 14HRR production from 3H retinol in mammalian cell lines; format: in vitro ADME; conditions: 3H retinol bound to fetal calf serum
Description: The use of ^3 H retinol bound to fetal calf serum was used as an assay to test for P3 in other cell lines.
The use of ^3 H retinol bound to fetal calf serum was used as an assay to test for 14HRR in other cell lines.

[3] = system: B lymphocytes; assay: B cell growth/survival; format: cell-based; conditions: on a concentration basis
[4] = Stability (half-life) in serum-free tissue culture; format: in vitro ADME

| lability relative to retinal [4] | SMILES | retinoids identified after 3H-retinol [1] | retinoids not detected after 3H-retinol [1] | radioactivity peak at 14HRR (P3) position [2] | activity relative to all-trans retinol in B cells [3] |
| --- | --- | --- | --- | --- | --- |
|  | CC1=C(/C=C/C(C)=C/C=C/C(C)=C/CO)C(C)(C)CCC1 [retinol, all-trans retinol] | 13-cis retinol, all-trans retinol, and several retinyl esters were identified | Retinoic acid, 3,4-didehydroretinol acid as well as 3,4-didehydroretinol were not detectable | radioactivity peak at the position where 14HRR normally elutes; also recorded: radioactivity peak at the position where P3 normally elutes |  |
| much more labile molecule than retinal | CC(C=CC=C(C)C(O)CO)=CC=C1C(C)=CCCC1(C)C (centres unmarked) [14HRR, 14-hydroxy-4,14-retro-retinol] |  |  |  | 10-30 fold more active |
